Like-named read-outs stand apart in the source and are kept apart here. Marks after values point to notes of the source that are not given here.
Tests used:
DispersinB [1] = settings: 50 mM Citrate, 100 mM NaCl pH 5.9 control = 100%
DispersinB [2] = assay type: biochemical, Aggregatibacter actinomycetemcomitans; settings: 50 mM citrate buffer pH 5.9, salt concentration as in label, control with no salts = 100%
Text: Activity of the control sample with no salts was considered 100%.

DispersinB [3] = settings: 50 mM citrate buffer pH 5.9, 100 mM K2SO4 sample = 100%
DispersinB [4] = assay type: biochemical, Aggregatibacter actinomycetemcomitans; settings: 50 mM citrate buffer pH 5.9, 100 mM NaCl, levulinic acid % as in label, control = 100%
Method: DispersinB enzyme (100 μg/ml) solutions in 50 mM citrate buffer (pH 5.9), 100 mM NaCl containing Levulinic acid (0.25%-2%) were tested for DispersinB enzymatic activity following β-N-Acetylglucosaminidase assay.

For `O=S(=O)([O-])[O-].[K+].[K+]` [K2SO4, potassium sulfate], the “% Activity” value (DispersinB [1]; pH 4) was 11.06^ab %, the “% Activity” value (DispersinB [1]; pH 4.2) was 22.55^ab % and the “% Activity” value (DispersinB [1]; pH 4.4) was 34.17^ab %. For the same molecule, the “% Activity” value (DispersinB [1]; pH 4.6) was 57.21 ^ab %, the “% Activity” value (DispersinB [1]; pH 4.8) was 81.09 ^ab % and the “% Activity” value (DispersinB [1]; pH 5) was 118.00 ^ab %. For the same molecule, the “% Activity” value (DispersinB [1]; pH 5.1) was 133.61 ^ab %, the “% Activity” value (DispersinB [1]; pH 5.2) was 149.86 ^ab % and the “% Activity” value (DispersinB [1]; pH 5.3) was 142.65 ^ab %. The “% Activity” value (DispersinB [1]; pH 5.4) was 162.25^a %, the “% Activity” value (DispersinB [1]; pH 5.5) was 172.83^a % and the “% Activity” value (DispersinB [1]; pH 5.6) was 166.67^a %. For the same molecule, the “% Activity” value (DispersinB [1]; pH 5.7) was 154.62^a %, the “% Activity” value (DispersinB [1]; pH 5.8) was 146.99 ^ab % and the “% Activity” value (DispersinB [1]; pH 5.9) was 143.77 ^ab %. The “% Activity” value (DispersinB [1]; pH 6) was 130.81 ^ab %, the “% enzymatic activity of DispersinB (Mean)” value (shortened to “% enzymatic activity”) (DispersinB [2]; listed as 100 mM K2SO4) was 211* % and the “% enzymatic activity” value (DispersinB [2]; listed as 200 mM K2SO4) was 289* %. The “% Activity” value (DispersinB [3]; 100 mM K2SO4) was 100%, the “% Activity” value (DispersinB [3]; 150 mM K2SO4) was 143* % and the “% Activity” value (DispersinB [3]; 200 mM K2SO4) was 149* %. The “% Activity” value (DispersinB [3]; 250 mM K2SO4) was 159* % and the “% Activity” value (DispersinB [3]; 300 mM K2SO4) was 141* %.
`CC(=O)CCC(=O)O` [Levulinic acid, 4-oxopentanoic acid] was tested, and the “% enzymatic activity” value (DispersinB [4]; listed as 0.25% Levulinic acid) was 103* %, the “% enzymatic activity” value (DispersinB [4]; listed as 0.5% Levulinic acid) was 102% and the “% enzymatic activity” value (DispersinB [4]; listed as 1% Levulinic acid) was 104%. For the same molecule, the “% enzymatic activity” value (DispersinB [4]; listed as 2% Levulinic acid) was 104* %, the “% enzymatic activity” value (DispersinB [4]; listed as 3% Levulinic acid) was 109* % and the “% enzymatic activity” value (DispersinB [4]; listed as 4% Levulinic acid) was 109* %. For the same molecule, the “% enzymatic activity” value (DispersinB [4]; listed as 5% Levulinic acid) was 114* %.
